BindingDB's records for doi:10.7270/Q2377749 (Nmmlsc, 2010)

target: Ras-related C3 botulinum toxin substrate 1 (Mus musculus, UniProt P63001); experiment: inhibition of wildtype Rac1 nucleotide loading – biochemical, multiplex bead flow cytometry, dose response (AID 1340)

SMILES	EC50
COc1ccc(-c2nnc(SCC(=O)c3cccs3)o2)cc1 [2-[[5-(4-methoxyphenyl)-1,3,4-oxadiazol-2-yl]sulfanyl]-1-thiophen-2-yl-ethanone]	6390 nM
O=C(NNC(=S)NCc1ccc(Cl)cc1)c1ccc(Br)o1 [1-[(5-bromanylfuran-2-yl)carbonylamino]-3-[(4-chlorophenyl)methyl]thiourea]	85.7 nM
O=C(O)/C=C/c1cn(Cc2ccccc2)nc1-c1cccs1 [(E)-3-(1-benzyl-3-thiophen-2-ylpyrazol-4-yl)prop-2-enoic acid]	2280 nM
O=C(O)/C=C/c1cn(Cc2ccccc2)nc1-c1ccc(Cl)cc1 [(E)-3-[1-benzyl-3-(4-chlorophenyl)pyrazol-4-yl]acrylic acid]	164 nM
O=C(O)c1ccccc1OCc1ccccc1Br [2-(2-bromobenzyl)oxybenzoic acid]	151 nM
N#Cc1c(-c2ccccc2)nc(SCC(=O)Nc2ccccc2)[nH]c1=O [2-[(5-cyano-4-oxo-6-phenyl-1H-pyrimidin-2-yl)thio]-N-phenylacetamide]	3540 nM
Cc1cc(C)cc(N=Cc2[nH]c3ccc(Br)c(Cl)c3c2O)c1 [(2Z)-5-bromo-4-chloro-2-[(3,5-dimethylanilino)methylidene]-1H-indol-3-one]	3030 nM
CCOC(=O)c1nc(Nc2ccc(C(C)=O)cc2)c2ccccc2n1 [4-(4-acetylanilino)-2-quinazolinecarboxylic acid ethyl ester]	3400 nM
O=C(O)c1ccccc1NCc1ccccc1Cl [2-[(2-chlorobenzyl)amino]benzoic acid]	899 nM
CCOc1ccc(/C=C2\SC(N3CCc4ccccc4C3)=NC2=O)cc1 [(5Z)-2-(3,4-dihydro-1H-isoquinolin-2-yl)-5-(4-ethoxybenzylidene)-2-thiazolin-4-one]	4020 nM
O=C(O)c1ccc(COc2ccccc2Cl)o1 [5-[(2-chloranylphenoxy)methyl]furan-2-carboxylic acid]	26300 nM
COc1ccc(Cl)cc1NCc1sc(C(=O)O)cc1C [5-[(5-chloro-2-methoxy-anilino)methyl]-4-methyl-2-thenoic acid]	1820 nM
COc1ccccc1NCc1sc(C(=O)O)cc1C [4-methyl-5-(o-anisidinomethyl)-2-thenoic acid]	16000 nM
O=C(C#Cc1ccccc1)c1cccc([N+](=O)[O-])c1 [1-(3-nitrophenyl)-3-phenyl-2-propyn-1-one]	19200 nM
CCCc1nc2c(=O)n(C)c(=O)nc-2n(C)n1 [1,6-dimethyl-3-propyl-pyrimido[5,4-e][1,2,4]triazine-5,7-dione]	623 nM
CN1C(=O)N(C)c2ccc(C=O)c3cccc1c23 [1,3-dimethyl-2-oxidanylidene-perimidine-6-carbaldehyde]	20800 nM
O=C(NC1CCCCC1)c1cc([N+](=O)[O-])n[nH]1 [MLS000559279]	55300 nM
CC1(C)Cc2c(sc(NC(=S)NC(=O)c3ccccc3)c2C(=O)O)CO1 [2-(benzoylcarbamothioylamino)-5,5-dimethyl-4,7-dihydrothieno[2,3-c]pyran-3-carboxylic acid]	80.6 nM
COCCn1c(=S)[nH]c2cc(C(=O)N3CCc4ccccc4C3)ccc2c1=O [SMR000310652]	605 nM
OC(CNCCc1ccc(Cl)cc1)COc1ccc2ccccc2c1 (configuration not stated) [1-[2-(4-chlorophenyl)ethylamino]-3-(2-naphthalenyloxy)-2-propanol]	7190 nM
Cc1cc(C(=O)Cn2nc(C(=O)O)c3ccccc3c2=O)c(C)n1-c1ccc(OC(F)F)cc1 [3-[2-[1-[4-(difluoromethoxy)phenyl]-2,5-dimethyl-3-pyrrolyl]-2-oxoethyl]-4-oxo-1-phthalazinecarboxylic acid]	5900 nM
COc1ccc(C(=O)CC=Nc2ccc(S(=O)(=O)Nc3nc(C)cc(C)n3)cc2)cc1OC [4-[3-(3,4-Dimethoxy-phenyl)-3-oxo-propenylamino]-N-(4,6-dimethyl-pyrimidin-2-yl)-benzenesulfonamide]	3120 nM
COc1cc(C=NNC(=O)c2sc(N)nc2C)cc(OC)c1OC [2-amino-4-methyl-N-[(3,4,5-trimethoxyphenyl)methylideneamino]-5-thiazolecarboxamide]	1670 nM
CCOC(=O)CN(C(=O)CSc1nnc2c(n1)[nH]c1ccc(OC)cc12)c1ccc(F)cc1 [ethyl 2-[(4-fluorophenyl)-[2-[(8-methoxy-5H-[1,2,4]triazino[5,6-b]indol-3-yl)sulfanyl]ethanoyl]amino]ethanoate]	923 nM

SMILES	EC50
COc1cc(CN=Nc2nnc3c(n2)[nH]c2ccccc23)ccc1O	634 nM
Cc1cc(NC(=O)CSc2nc(O)c(C#N)c(-c3ccccc3)n2)no1 [2-[(5-cyano-4-oxidanylidene-6-phenyl-1H-pyrimidin-2-yl)sulfanyl]-N-(5-methyl-1,2-oxazol-3-yl)ethanamide]	9540 nM
CCN(CC)c1ccc2cc(-c3nc(-c4ccc(OC)cc4)cs3)c(=O)oc2c1 [7-(diethylamino)-3-[4-(4-methoxyphenyl)-1,3-thiazol-2-yl]chromen-2-one]	372 nM
O=C(O)c1ccccc1NCCc1ccc(Cl)cc1 [2-[2-(4-chlorophenyl)ethylamino]benzoic acid]	1520 nM
Cc1ccc(C)c(OCCn2cc(C(=O)O)c3ccccc32)c1 [1-[2-(2,5-dimethylphenoxy)ethyl]-3-indolecarboxylic acid]	802 nM
Cc1sc2nc3ccc(NCc4ccco4)nn3c(=O)c2c1C [7-(2-furanylmethylamino)-2,3-dimethyl-4-thieno[1,2]pyrimido[4,5-b]pyridazinone]	9210 nM
Cc1cc(C)c(C)c(C(=O)c2ccccc2C(=O)O)c1C [2-(2,3,5,6-tetramethylbenzoyl)benzoic acid]	2240 nM
NC(=S)NNC1=c2cc(F)ccc2=NC1=O [[(5-fluoro-2-oxoindol-3-yl)amino]thiourea]	3460 nM
Cc1cccc(-n2nc(CC#N)c(C#N)c2N)c1 [5-amino-3-(cyanomethyl)-1-(3-methylphenyl)-4-pyrazolecarbonitrile]	28400 nM
CCn1nc(C(=O)OCC(=O)c2cc(C)n(Cc3cccs3)c2C)c2ccccc2c1=O [3-ethyl-4-keto-phthalazine-1-carboxylic acid [2-[2,5-dimethyl-1-(2-thenyl)pyrrol-3-yl]-2-keto-ethyl] ester]	892 nM
N=C(N)NS(=O)(=O)c1ccc(NC(=S)NC(=O)c2ccc3c(c2)OCO3)cc1 [MLS000621545]	2800 nM
CC(=O)c1c(C)[nH]c(C(=O)N2CCc3ccccc3C2)c1C [1-[5-(3,4-dihydro-1H-isoquinolin-2-ylcarbonyl)-2,4-dimethyl-1H-pyrrol-3-yl]ethanone]	5130 nM
O=C(O)CCN1C(=O)/C(=C/c2ccc(-c3nc4ccccc4s3)o2)SC1=S [3-[(5Z)-5-[[5-(1,3-benzothiazol-2-yl)furan-2-yl]methylidene]-4-oxo-2-sulfanylidene-1,3-thiazolidin-3-yl]propanoic acid]	976 nM
O=C(O)c1cn(CCOc2ccccc2)c2ccccc12 [1-(2-phenoxyethyl)-3-indolecarboxylic acid]	5440 nM
COc1cc(SC#N)ccc1N=Cc1c(C)[nH]n(-c2ccc(C)c(C)c2)c1=O [[4-[[(Z)-[1-(3,4-dimethylphenyl)-3-methyl-5-oxidanylidene-pyrazol-4-ylidene]methyl]amino]-3-methoxy-phenyl] thiocyanate]	966 nM
O=C(Nc1nc(-c2ccc(S(=O)(=O)N3CCCC3)cc2)cs1)c1ccco1 [MLS000049286]	1760 nM
CC(C)C(NCc1c(Cl)cccc1Cl)C(=O)O (configuration not stated) [2-[(2,6-dichlorobenzyl)amino]-3-methyl-butyric acid]	5800 nM
Cc1cc(C(=O)Oc2ccccc2C(=O)O)c(C)o1 [2-(2,5-dimethyl-3-furoyl)oxybenzoic acid]	102 nM
Cc1ccccc1C(=O)Nc1ccc2c(C#N)c3nc4ccccc4nc3n2c1 [MLS000591720]	291 nM
O=C(COc1ncnc2cc([N+](=O)[O-])ccc12)NCCc1ccc(Cl)cc1 [MLS000335629]	5410 nM
CC(C)Oc1ccc(C=NNC(=O)c2ccc(N(Cc3ccccc3)S(C)(=O)=O)cc2)cc1 [4-[benzyl(mesyl)amino]-N-[(4-isopropoxybenzylidene)amino]benzamide]	5170 nM
O=C1/C(=C\c2cccnc2)Sc2ccccc21 [(2E)-2-(3-pyridinylmethylidene)-1-benzothiophen-3-one]	93100 nM
O=C(O)c1ccccc1Sc1ncnc2sc3c(c12)CCC3	1220 nM
